Results reported in patent publication US20070219214A1, “Dual NK2/NK3-antagonists, pharmaceutical compositions comprising them, and processes for their preparation” (Solvay pharmaceuticals GmbH, priority 2006, published 2007).
Where two headings read alike, the source gives them in different places.

Legend:
[1] = target: T1, human NK3 receptor (Homo sapiens, UniProt P29371); assay: Functional cellular test, Ca2+ measurements using aequorin for NK3 activity; type: cell-based; parameters: expressed in transfected cells; host or cells: cell line co-expressing mitochondrially targeted apoaequorin (CHO according to b76/b77); details: for Kb: read-out: pA2 data for NK3 (converted); for pA2 data for NK3: cell line with human NK3 receptor and apoaequorin, agonist senktide 5x10-8 M
T1 sequence (P29371 1-465): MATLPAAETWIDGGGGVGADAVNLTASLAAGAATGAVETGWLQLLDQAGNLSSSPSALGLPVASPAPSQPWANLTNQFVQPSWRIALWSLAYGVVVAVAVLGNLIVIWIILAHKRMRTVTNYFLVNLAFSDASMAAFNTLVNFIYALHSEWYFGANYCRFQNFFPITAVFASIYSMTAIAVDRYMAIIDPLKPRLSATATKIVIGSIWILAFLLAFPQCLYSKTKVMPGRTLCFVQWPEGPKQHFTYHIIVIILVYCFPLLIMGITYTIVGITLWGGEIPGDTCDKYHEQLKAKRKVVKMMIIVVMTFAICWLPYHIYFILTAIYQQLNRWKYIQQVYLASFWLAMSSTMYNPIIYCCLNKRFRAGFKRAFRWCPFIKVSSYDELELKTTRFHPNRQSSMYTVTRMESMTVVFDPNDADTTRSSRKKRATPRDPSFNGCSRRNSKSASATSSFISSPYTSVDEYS

[2] = target: T2, human NK2-receptor (Homo sapiens, UniProt P21452); assay: Functional cellular test, Ca2+ measurements using FLIPR for NK2 activity; details: for pA2 data for NK2: CHO cells, human NK2, FLIPR Ca2+, agonist NKA 10^-7 M;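 as to all read-outs here: CHO cells stably expressing the human receptor, loaded with a calcium dye, antagonist inhibition of ligand-evoked intracellular calcium rise read as peak fluorescence change on FLIPR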
T2 sequence (P21452 1-398): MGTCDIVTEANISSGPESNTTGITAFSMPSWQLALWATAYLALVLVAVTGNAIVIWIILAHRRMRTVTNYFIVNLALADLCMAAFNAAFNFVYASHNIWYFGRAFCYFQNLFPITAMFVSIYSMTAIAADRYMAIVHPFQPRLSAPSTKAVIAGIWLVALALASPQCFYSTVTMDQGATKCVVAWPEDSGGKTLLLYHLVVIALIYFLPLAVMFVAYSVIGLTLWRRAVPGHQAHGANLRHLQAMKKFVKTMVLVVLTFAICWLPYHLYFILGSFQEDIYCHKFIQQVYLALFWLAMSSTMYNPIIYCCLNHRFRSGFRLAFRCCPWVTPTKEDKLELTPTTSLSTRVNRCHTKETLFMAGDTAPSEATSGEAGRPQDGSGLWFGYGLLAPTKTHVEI

[3] = target: T3, NK3-receptor (Cavia porcellus, UniProt P30098); assay: NK-3-receptor-antagonistic effectiveness in vivo, senktide-induced hypertension in guinea pigs; details: guinea pig; for ID50 (iv), inhibition of blood pressure / ID50 (po), inhibition of blood pressure: senktide 0.4 μg/kg i.v.; for ID50 (iv), inhibition of blood pressure: intravenous administration; for ID50 (po), inhibition of blood pressure: oral administration
T3 construct: from tissue; host or cells: whole animal (Dunkin Hartley guinea pigs), in vivo
T3 sequence (P30098 1-440): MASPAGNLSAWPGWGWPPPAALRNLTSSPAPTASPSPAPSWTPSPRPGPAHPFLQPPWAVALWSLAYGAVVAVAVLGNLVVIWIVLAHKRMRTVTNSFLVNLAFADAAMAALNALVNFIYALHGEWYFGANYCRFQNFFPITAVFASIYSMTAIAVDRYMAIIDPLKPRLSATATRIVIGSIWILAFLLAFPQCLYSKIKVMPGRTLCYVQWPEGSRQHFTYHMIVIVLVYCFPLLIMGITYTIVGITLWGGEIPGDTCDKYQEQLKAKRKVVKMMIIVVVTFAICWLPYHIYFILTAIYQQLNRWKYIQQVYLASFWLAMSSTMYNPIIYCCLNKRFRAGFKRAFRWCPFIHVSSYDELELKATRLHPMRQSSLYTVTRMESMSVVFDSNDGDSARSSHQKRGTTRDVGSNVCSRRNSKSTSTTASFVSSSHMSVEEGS
Procedure: 9. Determination of the NK-3-Receptor-Antagonistic Effectiveness of the Test Substances In Vivo (Reduction of Blood Pressure in Guinea-Pigs with Senktide-Induced Hypertension)
NK3 agonists increase the blood pressure in guinea pigs. The senktide-induced hypertension can be antagonized by administering compounds with NK3-antagonistic properties. Measuring the level of hypertension is indicative of the degree of activity of the test compounds. The effect of the tested compound is assessed in the same experiment to exclude an additional hypertensional effect.
Male Dunkin Hartley guinea pigs with a body weight between 450 and 550 g were anesthetized with Ketamin (200 mg/kg i.m.; Aescoket 10%) and the left carotid artery and left jugular vein were cannulated for blood pressure measurement and drug application, respectively. The animals were allowed to breathe spontaneously. Blood pressure was measured with a strain gauge transducer connected to a computer via an amplifier.
For oral administration, vehicle (1% methylcellulose) or test compound was administered in a dose volume of 5 ml/kg. Forty five minutes thereafter, anesthesia was induced and the carotid artery and jugular vein were cannulated.
For intravenous administration, the test compounds were dissolved in 40% hydroxypropyl-β-cyclodextrine (HPCD) containing 10% DMSO, diluted with saline and administered intravenously in cumulative dose ranges. A vehicle group of animals received the corresponding HPCD/DMSO solutions instead of the test compound. For oral administration, the test compound was suspended in 1% methylcellulose. A vehicle group of animals received the corresponding […] of the test compound.

[4] = iv, read-out: ID50 (iv), inhibition of blood pressure

Row | SMILES | Kb [1] [nM] | Kb [2] [nM] | pA2 data for NK3 [1] | pA2 data for NK2 [2] | ED50 [3, 4] [mg/kg] | ID50 (iv), inhibition of blood pressure [3] [mg/kg] | ID50 (po), inhibition of blood pressure [3] [mg/kg] | ED50 ([3]; po, read-out: ID50 (po), inhibition of blood pressure) [mg/kg]
1 | CN(C)C(=O)C1(N2CCCCC2)CCN(CCC(CN(C)C(=O)c2cccnc2)c2ccc(Cl)c(Cl)c2)CC1 (stereo not shown) [compound 19] | 50.1 | 0.501 | – | – | 0.39 | – | – | –
2 | CN(C)C(=O)C1(N2CCCCC2)CCN(CC[C@H](CN(C)C(=O)c2ccc(F)cc2F)c2ccc(Cl)c(Cl)c2)CC1 [compound 13] | – | – | 8.0 | 8.3 | – | 0.5013 | <10 | –
3 | CN(C)C(=O)C1(N2CCCCC2)CCN(CC[C@H](CN(C)C(=O)C2CCCCC2)c2ccc(Cl)c(Cl)c2)CC1 [compound 3] | – | – | 8.2 | 8.7 | – | – | – | –
4 | CN(C)C(=O)C1(N2CCCCC2)CCN(CC[C@H](CN(C)C(=O)c2ccc(O)cc2)c2ccc(Cl)c(Cl)c2)CC1 [compound 6, 1′-{(3S)-3-(3,4-dichlorophenyl)-4-[(4-hydroxybenzoyl)-(methyl)amino]butyl}-N,N-dimethyl-1,4′-bipiperidine-4′-carboxamide] | 2 | 1.58 | – | – | 0.157 | – | – | –
5 | CN(C)C(=O)C1(N2CCCCC2)CCN(CCC(CN(C)C(=O)c2ccc(Cl)nc2)c2ccc(Cl)c(Cl)c2)CC1 (stereo not shown) [compound 18] | 10 | 3.16 | – | – | 1.01 | – | – | –
6 | CN(C)C(=O)C1(N2CCCCC2)CCN(CC[C@H](CN(C)C(=O)c2cc(F)ccc2F)c2ccc(Cl)c(Cl)c2)CC1 [compound 15] | – | – | 8.1 | 8.3 | – | 0.3732 | – | –

The next lines start with results.

Row | Kb [1] [nM] | Kb [2] [nM] | pA2 data for NK3 [1] | pA2 data for NK2 [2] | SMILES | ED50 [3, 4] [mg/kg] | ID50 (iv), inhibition of blood pressure [3] [mg/kg] | ID50 (po), inhibition of blood pressure [3] [mg/kg] | ED50 ([3]; po, read-out: ID50 (po), inhibition of blood pressure) [mg/kg]
7 | – | – | 8.1 | 8.2 | CN(C)C(=O)C1(N2CCCCC2)CCN(CC[C@H](CN(C)C(=O)c2ccc(F)c(F)c2)c2ccc(Cl)c(Cl)c2)CC1 [compound 14] | – | 0.5168 | 6.811 | –
8 | 2.51 | 0.2 | – | – | CN(C)C(=O)C1(N2CCCCC2)CCN(CC[C@H](CN(C)C(=O)c2ccccc2)c2ccc(Cl)c(Cl)c2)CC1 [compound 1] | 0.256 | – | – | 6.38
9 | – | – | 8.1 | 8.4 | CN(C)C(=O)C1(N2CCCCC2)CCN(CC[C@H](CN(C)C(=O)c2cc(C#N)c3ccccc3c2)c2ccc(Cl)c(Cl)c2)CC1 [compound 11] | – | 1.0554 | 10 | –
10 | – | – | 8.2 | 8.6 | CN(C)C(=O)C1(N2CCCCC2)CCN(CC[C@H](CN(C)C(=O)c2ccc(F)cc2)c2ccc(Cl)c(Cl)c2)CC1 [compound 4] | – | 0.7564 | 2.3313 | –
